We go through 24 compounds from patent publication US10787462B2, “Heterocyclic compound” (TAKEDA PHARMACEUTICAL COMPANY LIMITED, priority 2015, dated 2020).

The first test addresses T1, human RIPK1 (1-375) (Homo sapiens, UniProt Q13546).
T1 construct: human RIPK1 (1-375) gene; GST; made in house; host or cells: Sf-9 insect cells
T1 sequence (Q13546 1-375): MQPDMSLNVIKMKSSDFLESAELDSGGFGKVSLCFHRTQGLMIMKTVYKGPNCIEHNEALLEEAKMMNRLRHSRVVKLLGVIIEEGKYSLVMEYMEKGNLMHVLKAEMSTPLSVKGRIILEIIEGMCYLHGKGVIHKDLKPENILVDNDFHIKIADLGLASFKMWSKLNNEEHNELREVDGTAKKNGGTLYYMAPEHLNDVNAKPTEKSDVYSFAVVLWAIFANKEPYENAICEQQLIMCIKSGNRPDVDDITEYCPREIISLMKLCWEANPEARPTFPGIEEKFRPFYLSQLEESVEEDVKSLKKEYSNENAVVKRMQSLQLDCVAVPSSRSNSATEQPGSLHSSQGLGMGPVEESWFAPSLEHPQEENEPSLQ
Description: Human RIPK1 enzyme inhibitory effect (ADP-Glo Kinase Assay). The class given is biochemical. The note with it: 10 μM test compound; well without enzyme = 100% inhibition. An outline of the steps:
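ADP-Glo luminescence read-out of ADP formed over 120 min at room temperature after adding 0.6 mM ATP solution (stock concentration). Compound and Sf-9-expressed, GST-purified RIPK1 (1-375) were first incubated together for 20 min in HEPES pH 7.5 buffer with MgCl2, Tween-20 and DTT.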
Regarding “(3S)-7-chloro-3-(3-chloro-1-oxo- 2-(pyrazin-2-ylmethyl)-2,4,5,7- tetrahydro-6H-pyrazolo[3,4- c]pyridin-6-yl)-5-methyl-2,3- dihydro-1,5-benzoxazepin-4(5H)- one [Example 74]”, the “human RIPK1 enzyme inhibitory effect at 10 μM (% inhibition)” value amounted to 97%.

The test is the same for the next values; noted with them: 10 μM test compound; well without enzyme = 100% inhibition; 10 µM.
For the compound `CN1C(=O)C(N2CCc3c(nn(Cc4ccccc4)c3Cl)C2=O)CCc2ccncc21` (stereo not drawn) [Example 95, 3-(2-benzyl-3-chloro-7-oxo-2,4,5,7-tetrahydro-6H-pyrazolo[3,4-c]pyridin-6-yl)-1-methyl-1,3,4,5-tetrahydro-2H-pyrido[3,4-b]azepin-2-one], the “human RIPK1 enzyme inhibitory effect at 10 μM (% inhibition)” value amounted to 101%.
On the same count and under the same terms, in the case of `CN1C(=O)C(N2CCc3c(nn(Cc4ccccc4)c3Cl)C2=O)CCc2cn(C)nc21` (stereo not drawn) [Example 111, 6-(2-benzyl-3-chloro-7-oxo-2,4,5,7-tetrahydro-6H-pyrazolo[3,4-c]pyridin-6-yl)-2,8-dimethyl-2,5,6,8-tetrahydropyrazolo[3,4-b]azepin-7(4H)-one] it was 99%.

The test is the same for the next values; noted with them: read-out: human RIPK1 enzyme inhibitory effect at 10 μM (% inhibition), 10 μM test compound; well without enzyme = 100% inhibition.
Turning to `CN1C(=O)[C@@H](N2CCc3c(nn(Cc4cnccn4)c3Cl)C2=O)COc2ccc(F)cc21` [Example 143, (3S)-3-(3-chloro-7-oxo-2-(pyrazin-2-ylmethyl)-2,4,5,7-tetrahydro-6H-pyrazolo[3,4-c]pyridin-6-yl)-7-fluoro-5-methyl-2,3-dihydro-1,5-benzoxazepin-4(5H)-one], the inhibition at 10 µM turned out to be 100%.
Still for that read-out and setting: in the case of `CN1C(=O)[C@@H](N2CCc3cn(Cc4ccc(Cl)cc4F)nc3C2=O)COc2ccccc21` [Example 168, (3S)-3-(2-(4-chloro-2-fluorobenzyl)-7-oxo-2,4,5,7-tetrahydro-6H-pyrazolo[3,4-c]pyridin-6-yl)-5-methyl-2,3-dihydro-1,5-benzoxazepin-4(5H)-one] it was 100%; in that of `CN1C(=O)[C@@H](N2CCc3cn(Cc4cccc(C#N)c4)nc3C2=O)COc2ccccc21` [Example 29, 3-((6-((3S)-5-methyl-4-oxo-2,3,4,5-tetrahydro-1,5-benzoxazepin-3-yl)-7-oxo-4,5,6,7-tetrahydro-2H-pyrazolo[3,4-c]pyridin-2-yl)methyl)benzonitrile], 99%.
Still for that read-out and setting: next, `CCOC(=O)c1c2c(nn1Cc1ccccc1)C(=O)N([C@H]1COc3ccccc3N(C)C1=O)CC2` [Example 51, ethyl 2-benzyl-6-((3S)-5-methyl-4-oxo-2,3,4,5-tetrahydro-1,5-benzoxazepin-3-yl)-7-oxo-4,5,6,7-tetrahydro-2H-pyrazolo[3,4-c]pyridine-3-carboxylate]: 99%.
Same read-out and setting: next, `CN1C(=O)[C@@H](N2CCc3c(nn(Cc4ccccc4)c3Cl)C2=O)COc2cc(C(=O)O)ccc21` [Example 61, (3S)-3-(2-benzyl-3-chloro-7-oxo-2,4,5,7-tetrahydro-6H-pyrazolo[3,4-c]pyridin-6-yl)-5-methyl-4-oxo-2,3,4,5-tetrahydro-1,5-benzoxazepine-8-carboxylic acid]: 100%; `CN1C(=O)[C@@H](N2CCc3c(nn(Cc4cnccn4)c3Cl)C2=O)COc2cc(Cl)ccc21` [Example 146, (3S)-8-chloro-3-(3-chloro-7-oxo-2-(pyrazin-2-ylmethyl)-2,4,5,7-tetrahydro-6H-pyrazolo[3,4-c]pyridin-6-yl)-5-methyl-2,3-dihydro-1,5-benzoxazepin-4(5H)-one]: 101%; `Cc1c2c(nn1Cc1ccccc1F)C(=O)N([C@H]1COc3cc(C#N)ccc3N(C)C1=O)CC2` [Example 112, (3S)-3-(2-(2-fluorobenzyl)-3-methyl-7-oxo-2,4,5,7-tetrahydro-6H-pyrazolo[3,4-c]pyridin-6-yl)-5-methyl-4-oxo-2,3,4,5-tetrahydro-1,5-benzoxazepine-8-carbonitrile]: 100%.
Take `CN1C(=O)[C@@H](N2CCc3cn(CCc4ccccc4)nc3C2=O)COc2ccccc21` [Example 23, (3S)-5-methyl-3-(7-oxo-2-(2-phenylethyl)-2,4,5,7-tetrahydro-6H-pyrazolo[3,4-c]pyridin-6-yl)-2,3-dihydro-1,5-benzoxazepin-4(5H)-one]: the inhibition at 10 µM turned out to be 91%.
On the same count and under the same terms, in the case of `CN1C(=O)[C@@H](N2CCc3cn(Cc4ccc(Cl)cc4)nc3C2=O)CSc2ccccc21` [Example 150, (3R)-3-(2-(4-chlorobenzyl)-7-oxo-2,4,5,7-tetrahydro-6H-pyrazolo[3,4-c]pyridin-6-yl)-5-methyl-2,3-dihydro-1,5-benzothiazepin-4(5H)-one] it was 99%; in that of `CN1C(=O)[C@@H](N2CCc3c(nn(Cc4ccccc4)c3Cl)C2=O)COc2cc(-c3cn[nH]c3)ccc21` [Example 140, (3S)-3-(2-benzyl-3-chloro-7-oxo-2,4,5,7-tetrahydro-6H-pyrazolo[3,4-c]pyridin-6-yl)-5-methyl-8-(1H-pyrazol-4-yl)-2,3-dihydro-1,5-benzoxazepin-4(5H)-one], 102%; in that of `O=C1Nc2ccc(Br)cc2OC[C@@H]1N1CCc2c(nn(Cc3ccccc3)c2Cl)C1=O` [Example 82, (3S)-3-(2-benzyl-3-chloro-7-oxo-2,4,5,7-tetrahydro-6H-pyrazolo[3,4-c]pyridin-6-yl)-8-bromo-2,3-dihydro-1,5-benzoxazepin-4(5H)-one], 99%.
On the same count and under the same terms, next, `CN1C(=O)C(N2CCc3c(nn(Cc4ccccc4F)c3Cl)C2=O)CCc2nn(C)cc21` (stereo not drawn) [Example 119, 6-(3-chloro-2-(2-fluorobenzyl)-7-oxo-2,4,5,7-tetrahydro-6H-pyrazolo[3,4-c]pyridin-6-yl)-2,4-dimethyl-2,6,7,8-tetrahydropyrazolo[4,3-b]azepin-5(4H)-one]: 97%.
Still for that read-out and setting: in the case of `CN1C(=O)C(N2CCc3c(nn(Cc4ccccc4F)c3Cl)C2=O)CCc2cnccc21` (stereo not drawn) [Example 105, 3-(3-chloro-2-(2-fluorobenzyl)-7-oxo-2,4,5,7-tetrahydro-6H-pyrazolo[3,4-c]pyridin-6-yl)-1-methyl-1,3,4,5-tetrahydro-2H-pyrido[4,3-b]azepin-2-one] it was 99%.
Turning to `CN1C(=O)[C@@H](N2CCc3c(nn(Cc4ccccc4)c3Cl)C2=O)COc2cc(-c3ncco3)ccc21` [Example 139, (3S)-3-(2-benzyl-3-chloro-7-oxo-2,4,5,7-tetrahydro-6H-pyrazolo[3,4-c]pyridin-6-yl)-5-methyl-8-(1,3-oxazol-2-yl)-2,3-dihydro-1,5-benzoxazepin-4(5H)-one], the inhibition at 10 µM stood at 100%.
Turning to `CN1C(=O)[C@@H](N2CCc3cn(CC4CCOC4)nc3C2=O)COc2ccccc21` (stereo partly drawn) [Example 171, (3S)-5-methyl-3-(7-oxo-2-(tetrahydrofuran-3-ylmethyl)-2,4,5,7-tetrahydro-6H-pyrazolo[3,4-c]pyridin-6-yl)-2,3-dihydro-1,5-benzoxazepin-4(5H)-one], the inhibition at 10 µM turned out to be 88%.
For `CN1C(=O)[C@@H](N2CCc3cn(Cc4cccc(S(C)(=O)=O)c4)nc3C2=O)COc2ccccc21` [Example 166, (3S)-5-methyl-3-(2-(3-(methylsulfonyl)benzyl)-7-oxo-2,4,5,7-tetrahydro-6H-pyrazolo[3,4-c]pyridin-6-yl)-2,3-dihydro-1,5-benzoxazepin-4(5H)-one], the inhibition at 10 µM is 88%.
Still for that read-out and setting: next, `CN1C(=O)[C@@H](N2CCc3c(nn(Cc4ccccc4)c3Cl)C2=O)COc2cc(-c3ccn(C)n3)ccc21` [Example 108, (3S)-3-(2-benzyl-3-chloro-7-oxo-2,4,5,7-tetrahydro-6H-pyrazolo[3,4-c]pyridin-6-yl)-5-methyl-8-(1-methyl-1H-pyrazol-3-yl)-2,3-dihydro-1,5-benzoxazepin-4(5H)-one]: 100%.
On the same count and under the same terms, in the case of `CN1C(=O)[C@@H](N2CCc3cn(Cc4ccccc4C#N)nc3C2=O)COc2ccccc21` [Example 28, 2-((6-((3S)-5-methyl-4-oxo-2,3,4,5-tetrahydro-1,5-benzoxazepin-3-yl)-7-oxo-4,5,6,7-tetrahydro-2H-pyrazolo[3,4-c]pyridin-2-yl)methyl)benzonitrile] it was 99%; in that of `CN1C(=O)[C@@H](N2CCn3nc(Cc4ccccc4)nc3C2=O)COc2ccccc21` [Example 8, (3S)-3-(2-benzyl-8-oxo-5,6-dihydro[1,2,4]triazolo[1,5-a]pyrazin-7(8H)-yl)-5-methyl-2,3-dihydro-1,5-benzoxazepin-4(5H)-one], 98%; in that of `CN1C(=O)[C@@H](N2CCc3cn(CC4CCCC4)nc3C2=O)COc2ccccc21` [Example 37, (3S)-3-(2-(cyclopentylmethyl)-7-oxo-2,4,5,7-tetrahydro-6H-pyrazolo[3,4-c]pyridin-yl)-5-methyl-2,3-dihydro-1,5-benzoxazepin-4(5H)-one], 100%.
The same measure, in the same setting: in the case of `CN1C(=O)[C@@H](N2CCc3cn(CC4CCCOC4)nc3C2=O)COc2ccccc21` (stereo partly drawn) [Example 170, (3S)-5-methyl-3-(7-oxo-2-(tetrahydro-2H-pyran-3-ylmethyl)-2,4,5,7-tetrahydro-6H-pyrazolo[3,4-c]pyridin-6-yl)-2,3-dihydro-1,5-benzoxazepin-4(5H)-one] it was 97%.
